ChEMBL document CHEMBL1201862, “PubChem BioAssay data set” (2004)
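A five-concentration, 48-hour dose response in 96-well plates underlies each endpoint, interpolated linearly between surrounding concentrations. Here, GI50 denotes the concentration required for 50% inhibition of growth.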 Active and inactive are the calls of the source. No stated cut-off is given here; in the data, active = GI50 up to about 1.1 µM and inactive = higher.

Legend:
Assay in all cases: inhibition of tumour cell growth, NCI panel, 48 h
SK-MEL-2 = tested on: SK-MEL-2
PC-3 = tested on: PC-3
TK-10 = tested on: TK-10
MCF7 = tested on: MCF7
A549 = tested on: A549
SF-539 = tested on: SF-539
CCRF-CEM = tested on: CCRF-CEM
HOP-62 = tested on: HOP-62
U-251 = tested on: U-251
Hs-578T = tested on: Hs-578T
LOX IMVI = tested on: LOX IMVI
RXF 393 = tested on: RXF 393
ACHN = tested on: ACHN
OVCAR-4 = tested on: OVCAR-4
A498 = tested on: A498
HOP-92 = tested on: HOP-92
UO-31 = tested on: UO-31
T47D = tested on: T47D
DU-145 = tested on: DU-145

| SMILES | GI50 (SK-MEL-2) | GI50 (PC-3) | GI50 (TK-10) | GI50 (MCF7) | GI50 (A549) | GI50 (SF-539) | GI50 (CCRF-CEM) | GI50 (HOP-62) | GI50 (U-251) | GI50 (Hs-578T) | GI50 (LOX IMVI) | GI50 (RXF 393) | GI50 (ACHN) | GI50 (OVCAR-4) | GI50 (A498) | GI50 (HOP-92) | GI50 (UO-31) | GI50 (T47D) | GI50 (DU-145) |
| --- | --- | --- | --- | --- | --- | --- | --- | --- | --- | --- | --- | --- | --- | --- | --- | --- | --- | --- | --- |
| CN(C)c1ccc(-c2c(C#N)c(O)n(NS(=O)(=O)c3ccccc3)c(=O)c2C#N)cc1 | > 100 µM (inactive) | > 100 µM (inactive) | > 100 µM (inactive) | > 100 µM (inactive) | > 100 µM (inactive) | > 100 µM (inactive) | > 100 µM (inactive) | > 100 µM (inactive) | > 100 µM (inactive) | > 100 µM (inactive) | > 100 µM (inactive) | > 100 µM (inactive) | > 100 µM (inactive) | > 100 µM (inactive) | > 100 µM (inactive) | > 100 µM (inactive) |  |  |  |
| O=c1c2cc(I)ccc2nc(-c2cccs2)n1-c1ccc(O)cc1 | 15.6 µM (inactive) | 10.6 µM (inactive) | 10.7 µM (inactive) | 11.5 µM (inactive) | 10.2 µM (inactive) | < 0.01 µM (active) |  | 17.5 µM (inactive) | 17.9 µM (inactive) |  | 11.6 µM (inactive) | 14.8 µM (inactive) | 8.2 µM (inactive) | 12.6 µM (inactive) |  | 10.1 µM (inactive) | 10.4 µM (inactive) | 1.56 µM (inactive) | 6.78 µM (inactive) |
| Nc1ccc(C(=O)O)c2[nH]c3ccccc3c(=O)c12 | > 100 µM (inactive) |  | > 100 µM (inactive) |  | > 100 µM (inactive) | > 100 µM (inactive) | 88.7 µM (inactive) | > 100 µM (inactive) | > 100 µM (inactive) |  | > 100 µM (inactive) | > 100 µM (inactive) | > 100 µM (inactive) | > 100 µM (inactive) | > 100 µM (inactive) | > 100 µM (inactive) | > 100 µM (inactive) |  |  |
| COC(=O)C1=C(C(=O)OC)C(Cc2ccccc2)(OO)OC1=O (stereo not given) | 5.65 µM (inactive) | 13.1 µM (inactive) | 3.4 µM (inactive) | 3.78 µM (inactive) | 27.4 µM (inactive) | 3.15 µM (inactive) | 1.04 µM (active) |  | 12.8 µM (inactive) |  | 3.59 µM (inactive) | 4.94 µM (inactive) | 2.99 µM (inactive) | 16 µM (inactive) |  | 5.94 µM (inactive) | 5.18 µM (inactive) | 9.98 µM (inactive) | 23 µM (inactive) |
| Brc1ccc2c(c1)-c1nc3c(cc1CC2)CCc1ccc(Br)cc1-3 | > 100 µM (inactive) | > 100 µM (inactive) | > 100 µM (inactive) | > 100 µM (inactive) | > 100 µM (inactive) |  | > 100 µM (inactive) | > 100 µM (inactive) | > 100 µM (inactive) |  | > 100 µM (inactive) | > 100 µM (inactive) | > 100 µM (inactive) | > 100 µM (inactive) | > 100 µM (inactive) | > 100 µM (inactive) | > 100 µM (inactive) | > 100 µM (inactive) |  |
| O=C(Nc1ccc(Cl)c(C(F)(F)F)c1)C(=O)c1c(O)c2ccccc2oc1=O | > 100 µM (inactive) | > 100 µM (inactive) | > 100 µM (inactive) | > 100 µM (inactive) | > 100 µM (inactive) | > 100 µM (inactive) | > 100 µM (inactive) | > 100 µM (inactive) | > 100 µM (inactive) | > 100 µM (inactive) | > 100 µM (inactive) | > 100 µM (inactive) | > 100 µM (inactive) | > 100 µM (inactive) | > 100 µM (inactive) | > 100 µM (inactive) | > 100 µM (inactive) | > 100 µM (inactive) |  |
| COc1cc(C)c2c(=O)c3ccccc3n(C)c2c1 | 36.4 µM (inactive) | 28.8 µM (inactive) | 40.9 µM (inactive) | 28.2 µM (inactive) | 38.5 µM (inactive) | 15.6 µM (inactive) | 21.9 µM (inactive) | > 10 µM (inactive) | 20 µM (inactive) | 40.4 µM (inactive) | 17.4 µM (inactive) | 14.2 µM (inactive) | 24.3 µM (inactive) | 19.7 µM (inactive) | 26.5 µM (inactive) | 7.43 µM (inactive) |  |  | 33.2 µM (inactive) |
| NC(=O)CCC(Nc1c2ccccc2nc2ccccc12)C(=O)O (stereo not given) | > 100 µM (inactive) |  | > 100 µM (inactive) |  | > 100 µM (inactive) | > 100 µM (inactive) | > 100 µM (inactive) |  | > 100 µM (inactive) |  | 63.7 µM (inactive) | > 100 µM (inactive) | 91 µM (inactive) | 4.14 µM (inactive) |  | 41.1 µM (inactive) |  |  |  |
| COc1cc2oc(=O)cc(C)c2c(OC)c1OC(C)=O | > 100 µM (inactive) | > 100 µM (inactive) | > 100 µM (inactive) | > 100 µM (inactive) | > 100 µM (inactive) |  | > 100 µM (inactive) | > 100 µM (inactive) | > 100 µM (inactive) | > 100 µM (inactive) | > 100 µM (inactive) |  | > 100 µM (inactive) | > 100 µM (inactive) | > 100 µM (inactive) |  | > 100 µM (inactive) |  | > 100 µM (inactive) |
| COC(=O)C(C(=O)C(=O)Nc1ccc([N+](=O)[O-])cc1)c1nc2ccc([N+](=O)[O-])cc2nc1O (stereo not given) | > 100 µM (inactive) |  | > 100 µM (inactive) |  | > 100 µM (inactive) | > 100 µM (inactive) | 55.2 µM (inactive) | > 100 µM (inactive) | > 100 µM (inactive) |  | > 100 µM (inactive) | > 100 µM (inactive) | > 100 µM (inactive) | > 100 µM (inactive) | > 100 µM (inactive) | > 100 µM (inactive) | > 100 µM (inactive) |  |  |
| CCN(CC)CCCNC(=O)c1cc2cc(NC(=O)c3cc4cc([N+](=O)[O-])ccc4[nH]3)ccc2[nH]1 | > 100 µM (inactive) | > 100 µM (inactive) | > 100 µM (inactive) | 48.1 µM (inactive) | > 100 µM (inactive) | 48.5 µM (inactive) |  | 28.6 µM (inactive) | > 10 µM (inactive) |  |  | > 100 µM (inactive) | > 100 µM (inactive) | > 100 µM (inactive) | 27.4 µM (inactive) | 37.5 µM (inactive) | > 100 µM (inactive) | > 100 µM (inactive) | > 100 µM (inactive) |
| COC(=O)C1=CC2CC1C(S(=O)(=O)c1ccccc1)C2S(=O)(=O)c1ccccc1 (stereo not given) |  |  | 10.4 µM (inactive) |  | 24.8 µM (inactive) |  | 2.92 µM (inactive) | 54.3 µM (inactive) | 17.3 µM (inactive) |  | 13.7 µM (inactive) |  | 7.48 µM (inactive) | 17.5 µM (inactive) | 17.6 µM (inactive) | 15.1 µM (inactive) | 14.3 µM (inactive) |  |  |
| Cc1ccccc1C1OC1C(=O)c1ccccc1N (stereo not given) | 43.3 µM (inactive) | 46.6 µM (inactive) | > 100 µM (inactive) | 55.3 µM (inactive) | 48 µM (inactive) | 29.9 µM (inactive) | > 100 µM (inactive) |  | > 100 µM (inactive) |  | 34.9 µM (inactive) | 90.4 µM (inactive) | > 100 µM (inactive) | 47.5 µM (inactive) | > 100 µM (inactive) | > 100 µM (inactive) | 78.7 µM (inactive) |  | > 100 µM (inactive) |
| Cc1ccccc1N/C(N)=N/C#N | > 100 µM (inactive) | > 100 µM (inactive) | > 100 µM (inactive) | > 100 µM (inactive) | > 100 µM (inactive) | > 100 µM (inactive) | > 100 µM (inactive) | > 100 µM (inactive) | > 100 µM (inactive) | > 100 µM (inactive) | > 100 µM (inactive) | > 100 µM (inactive) | > 100 µM (inactive) | > 100 µM (inactive) |  | 97.7 µM (inactive) | > 100 µM (inactive) |  | > 100 µM (inactive) |
| CCC(=O)NC(Nc1cc(C)on1)(C(F)(F)F)C(F)(F)F | > 100 µM (inactive) |  | > 100 µM (inactive) | > 100 µM (inactive) | > 100 µM (inactive) | > 100 µM (inactive) | > 100 µM (inactive) | > 100 µM (inactive) | > 100 µM (inactive) | > 100 µM (inactive) | > 100 µM (inactive) | > 100 µM (inactive) | > 100 µM (inactive) |  | > 100 µM (inactive) | > 100 µM (inactive) | 97.9 µM (inactive) | > 100 µM (inactive) | > 100 µM (inactive) |
| O=c1[nH]cc(NCCCl)c(=O)[nH]1 | > 100 µM (inactive) | > 100 µM (inactive) | > 100 µM (inactive) | > 100 µM (inactive) | > 100 µM (inactive) | > 100 µM (inactive) | > 100 µM (inactive) | > 100 µM (inactive) | > 100 µM (inactive) |  | > 100 µM (inactive) | > 100 µM (inactive) | > 100 µM (inactive) | > 100 µM (inactive) | > 100 µM (inactive) | > 100 µM (inactive) | > 100 µM (inactive) | > 100 µM (inactive) | > 100 µM (inactive) |
| CCN1C(=O)/C(=C2\SC(c3ccccc3)(c3ccccc3)c3ccccc32)SC1=S |  | 74.5 µM (inactive) | > 100 µM (inactive) | > 100 µM (inactive) | 87.9 µM (inactive) | 46.7 µM (inactive) | > 100 µM (inactive) | 27.5 µM (inactive) | 44.7 µM (inactive) | 32.2 µM (inactive) | 38.6 µM (inactive) | > 100 µM (inactive) | > 100 µM (inactive) | 63.4 µM (inactive) | 46 µM (inactive) | 30.5 µM (inactive) | > 100 µM (inactive) |  | > 100 µM (inactive) |
